Series [1] is described as follows: Stability of closantel and levamisole combination at 30° C. (HPLC). Type of series: physicochemical. Particulars: closantel and levamisole combination incubated at 30° C. On the procedure: Stability of Closantel and Levamisole Combination at 30° C.
The mixture was analysed by HPLC at times zero, 3 and 12 months.

A short description of series [2]: Pharmacokinetics of silymarin (plasma silybin a and b, HPLC). Particulars: in vivo, 260 mg. The procedure: Pharmacokinetics of silymarin administered in various delivery systems, comparing a powdered extract of silymarin containing 28% silybin a and b and a silymarin:lecithin complex as described in Example 2 of silymarin containing the same amount of silybin a and b.
Silymarin was administered at a dose of 260 mg silybin a and b.
Blood samples were collected at 0, 2, 4, and 6 hours after administration and analysed by HPLC.
Silybin a and b were analysed as conjugated and unconjugated silybin a and b.

For series [3] the following is noted: background statement; cited from earlier work.

As to `c1ccc([C@H]2CN3CCSC3=N2)cc1` [levamisole], in series [1], the “content at 0 months” value was found to be 3.21 g %, the “content at 3 months” value was 3.19 g % and the “content at 12 months” value was found to be 3.17 g %.

On to `Cc1cc(C(C#N)c2ccc(Cl)cc2)c(Cl)cc1NC(=O)c1cc(I)cc(I)c1O` (stereo not drawn) [closantel], for which, in series [1], the “content at 0 months” value is recorded as 3.75 g %, the “content at 3 months” value is listed as 3.72 g % and the “content at 12 months” value was 3.69 g %.

Turning to Silymarin, in series [2], the “AUC of conjugated silybin A and B” value was 191 ng/h/mL; the “AUC of free silybin A and B” value amounted to 6 ng/h/mL.

For the molecule `[Cr]` [chromium], the absorption in series [3] was 1-3%.

(Values after patent US20040167034A1, “Emulsion and dispersion formulations and method” (priority 2001, published 2004).)
